Test results from US10323022B2, “Pyrrolidinyl urea, pyrrolidinyl thiourea and pyrrolidinyl guanidine compounds as TrkA kinase inhibitors” (Array BioPharma Inc., priority 2011, dated 2019).
Structures can show the parent of a compound that is named as a salt.

Biological target: TrkA (Homo sapiens (Human), UniProt P04629)
Experiment: TrkA Omnia Assay
Type: biochemical
Conditions: averaged IC50; 20 nM enzyme, 500 μM ATP, 10 μM peptide substrate
Description: Trk enzymatic selectivity was assessed using Omnia™ Kinase Assay reagents from Invitrogen Corp. Enzyme (TrkA from Invitrogen Corp.) and test compound (various concentrations) were incubated for 10 minutes at ambient temperature in a 384-well white polypropylene plate (Nunc catalog#267462). Omnia Tyr Peptide #4, as well as ATP, were then added to the plate. Final concentrations were as follows: 20 nM enzyme, 500 μM of ATP, 10 μM peptide substrate. The assay buffer consisted of 25 mM MOPS pH 7.5, 0.005% (v/v) Triton X-100 and 5 mM MgCl2. The production of phosphorylated peptide was monitored continuously for 70 minutes using a Molecular Devices FlexStation II^384 microplate reader (excitation=360 nm; emission=485 nm). Initial rates were calculated from the progress curves. IC50 values were calculated from these rates using either a 4 or 5-parameter logistic curve fit.

Chain of TrkA (P04629 33-796): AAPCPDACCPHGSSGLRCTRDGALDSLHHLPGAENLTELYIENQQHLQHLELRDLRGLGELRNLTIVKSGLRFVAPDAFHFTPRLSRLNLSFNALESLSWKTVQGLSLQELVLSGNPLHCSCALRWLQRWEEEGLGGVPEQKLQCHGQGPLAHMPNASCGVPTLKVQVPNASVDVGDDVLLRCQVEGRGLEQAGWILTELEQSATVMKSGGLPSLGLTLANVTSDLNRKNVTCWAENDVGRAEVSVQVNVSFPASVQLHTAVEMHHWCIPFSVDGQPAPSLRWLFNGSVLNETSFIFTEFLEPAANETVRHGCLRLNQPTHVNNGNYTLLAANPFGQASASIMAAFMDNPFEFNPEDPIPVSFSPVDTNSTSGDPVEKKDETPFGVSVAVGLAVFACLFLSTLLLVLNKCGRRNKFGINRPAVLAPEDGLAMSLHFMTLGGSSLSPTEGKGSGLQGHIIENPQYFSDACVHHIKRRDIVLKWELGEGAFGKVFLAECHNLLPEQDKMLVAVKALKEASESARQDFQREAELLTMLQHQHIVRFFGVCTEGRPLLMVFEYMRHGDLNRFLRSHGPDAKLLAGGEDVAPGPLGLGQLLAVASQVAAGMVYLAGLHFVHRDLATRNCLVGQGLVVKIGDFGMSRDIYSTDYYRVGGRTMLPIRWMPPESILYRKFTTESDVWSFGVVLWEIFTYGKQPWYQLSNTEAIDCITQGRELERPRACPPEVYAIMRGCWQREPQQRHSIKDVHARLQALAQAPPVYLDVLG

Row | IC50 | SMILES
1 | < 100 nM | CNC(=O)c1nn(-c2ccccc2)c(NC(=O)N[C@@H]2CN(CCOC)C[C@H]2c2ccc(F)c(F)c2)c1C [Example 459, 5-(3-((3S,4R)-4-(3,4-difluorophenyl)-1-(2-methoxyethyl)pyrrolidin-3-yl)ureido)-N,4-dimethyl-1-phenyl-1H-pyrazole-3-carboxamide]
2 | < 100 nM | COCCOc1nn(-c2ccccc2)c(NC(=O)N[C@@H]2CN(CC(F)(F)F)C[C@H]2c2cccc(F)c2)c1C [Example 202, 1-((3S,4R)-4-(3-fluorophenyl)-1-(2,2,2-trifluoroethyl)pyrrolidin-3-yl)-3-(3-(2-methoxyethoxy)-4-methyl-1-phenyl-1H-pyrazol-5-yl)urea]
3 | < 100 nM | COCCN1C[C@@H](NC(=O)Nc2c(C)c(OCc3ccc(OC)cc3)nn2-c2ccccc2)[C@H](c2ccc(F)c(F)c2)C1 [Example 142, 1-((3S,4R)-4-(3,4-difluoro-phenyl)-1-(2-methoxyethyl)pyrrolidin-3-yl)-3-(3-(4-methoxybenzyloxy)-4-methyl-1-phenyl-1H-pyrazol-5-yl)urea]
4 | < 100 nM | COCCN1C[C@@H](NC(=O)Nc2c(C)c(Br)nn2-c2ccccc2)[C@H](c2ccc(F)cc2)C1 [Example 516, 1-(3-bromo-4-methyl-1-phenyl-1H-pyrazol-5-yl)-3-((3S,4R)-4-(4-fluorophenyl)-1-(2-methoxyethyl)pyrrolidin-3-yl)urea]
5 | < 100 nM | COCCN1C[C@@H](NC(=O)Nc2c(C)c(OC[C@H](O)C(F)(F)F)nn2-c2ccccc2)[C@H](c2cc(F)cc(F)c2)C1 [Example 369, 1-((3S,4R)-4-(3,5-difluorophenyl)-1-(2-methoxyethyl)pyrrolidin-3-yl)-3-(4-methyl-1-phenyl-3-((S)-3,3,3-trifluoro-2-hydroxypropoxy)-1H-pyrazol-5-yl)urea]
6 | < 100 nM | COCCN1C[C@@H](NC(=O)Nc2c(Br)c(OC[C@@H](C)O)nn2-c2ccccc2)[C@H](c2ccc(F)c(F)c2)C1 [Example 375, 1-(4-bromo-3-((R)-2-hydroxypropoxy)-1-phenyl-1H-pyrazol-5-yl)-3-((3S,4R)-4-(3,4-difluorophenyl)-1-(2-methoxyethyl)pyrrolidin-3-yl)urea]
7 | < 100 nM | COCCN1C[C@@H](NC(=O)Nc2c(C)c(C(F)(F)CO)nn2-c2ccccc2)[C@H](c2ccc(F)cc2)C1 [Example 284, 1-(3-(1,1-difluoro-2-hydroxyethyl)-4-methyl-1-phenyl-1H-pyrazol-5-yl)-3-((3S,4R)-4-(4-fluorophenyl)-1-(2-methoxyethyl)pyrrolidin-3-yl)urea]
8 | 100 to 1000 nM | Cn1nc(-c2ccccc2)cc1NC(=O)N[C@@H]1CN(CC(F)(F)F)C[C@H]1c1cccc(F)c1 [Example 203, 1-((3S,4R)-4-(3-fluorophenyl)-1-(2,2,2-trifluoroethyl)pyrrolidin-3-yl)-3-(1-methyl-3-phenyl-H-pyrazol-5-yl)urea]
9 | < 100 nM | COCCN1C[C@@H](NC(=O)Nc2c(C)c(-c3cnn(CC(F)(F)F)c3)nn2-c2ccccc2)[C@H](c2ccc(F)c(F)c2)C1 [Example 499, 1-((3S,4R)-4-(3,4-difluorophenyl)-1-(2-methoxyethyl)pyrrolidin-3-yl)-3-(4-methyl-1-phenyl-1′-(2,2,2-trifluoroethyl)-1H, 1′H-[3,4′-bipyrazol]-5-yl)urea]
10 | < 100 nM | COCCN1C[C@@H](NC(=O)Nc2c3c(nn2-c2ccccc2)CSC3)[C@H](c2ccccc2)C1 [Example 82, 1-((3S,4R)-1-(2-methoxy-ethyl)-4-phenylpyrrolidin-3-yl)-3-(2-phenyl-4,6-dihydro-2H-thieno[3,4-c]pyrazol-3-yl)urea]
11 | < 100 nM | COCCN1C[C@@H](NC(=O)Nc2c(C)c(-c3cnn(C)c3)nn2-c2ccccc2)[C@H](c2ccc(C)cc2)C1 [Example 327, 1-(1′,4-dimethyl-1-phenyl-1H,1′H-[3,4′-bipyrazol]-5-yl)-3-((3S,4R)-1-(2-methoxyethyl)-4-(p-tolyl)pyrrolidin-3-yl)urea]
12 | < 100 nM | COCCN1C[C@@H](NC(=O)Nc2cc(-c3cccc(OC)c3)nn2C)[C@H](c2ccc(F)c(F)c2)C1 [Example 105, 1-((3S,4R)-4-(3,4-difluorophenyl)-1-(2-methoxyethyl)pyrrolidin-3-yl)-3-(3-(3-methoxy-phenyl)-1-methyl-1H-pyrazol-5-yl)urea]
13 | 1000 to 10000 nM | COCCN1C[C@@H](NC(=O)Nc2cc(C(C)(C)C)nn2-c2ccccc2C)[C@H](c2ccccc2)C1 (relative stereo) [Example 29, 1-(3-tert-butyl-1-o-tolyl-1H-pyrazol-5-yl)-3-(trans-1-(2-methoxyethyl)-4-phenylpyrrolidin-3-yl)urea]
14 | < 100 nM | COCCN1C[C@@H](NC(=O)Nc2c(C)c(OC[C@H]3COC(C)(C)O3)nn2-c2ccccc2)[C@H](c2cc(F)c(F)c(F)c2)C1 [Example 398, 1-(3-(((S)-2,2-dimethyl-1,3-dioxolan-4-yl)methoxy)-4-methyl-1-phenyl-1H-pyrazol-5-yl)-3-((3S,4R)-1-(2-methoxyethyl)-4-(3,4,5-trifluorophenyl)pyrrolidin-3-yl)urea]
15 | < 100 nM | CCOc1cc(NC(=O)N[C@@H]2CN(CCOC)C[C@H]2c2ccc(F)c(F)c2)n(-c2ccccc2)n1 [Example 146, 1-((3S,4R)-4-(3,4-difluorophenyl)-1-(2-methoxyethyl)pyrrolidin-3-yl)-3-(3-ethoxy-1-phenyl-1H-pyrazol-5-yl)urea]
16 | < 100 nM | COCCN1C[C@@H](NC(=O)Nc2c(C)c(-c3cnn(C)n3)nn2-c2ccccc2)[C@H](c2ccc(F)c(F)c2)C1 [Example 351, 1-((3S,4R)-4-(3,4-difluorophenyl)-1-(2-methoxyethyl)pyrrolidin-3-yl)-3-(4-methyl-3-(2-methyl-2H-1,2,3-triazol-4-yl)-1-phenyl-1H-pyrazol-5-yl)urea]
17 | < 100 nM | COCCN1C[C@@H](NC(=O)Nc2c(C)c([C@@H]3CCCN3)nn2-c2ccccc2)[C@H](c2ccc(F)c(F)c2)C1 [Example 584, 1-((3S,4R)-4-(3,4-difluorophenyl)-1-(2-methoxyethyl)pyrrolidin-3-yl)-3-(4-methyl-1-phenyl-3-((S)-pyrrolidin-2-yl)-1H-pyrazol-5-yl)urea dihydrochloride]
18 | < 100 nM | COCCN1C[C@@H](NC(=O)Nc2c(Br)c(COC3CCN(C(C)=O)CC3)nn2-c2ccccc2)[C@H](c2ccc(F)c(F)c2)C1 [Example 600, 1-(3-((1-acetylpiperidin-4-yloxy)methyl)-4-bromo-1-phenyl-1H-pyrazol-5-yl)-3-((3S,4R)-4-(3,4-difluorophenyl)-1-(2-methoxyethyl)pyrrolidin-3-yl)urea]
19 | < 100 nM | COCCN1C[C@@H](NC(=O)Nc2c(Br)c(COC)nn2-c2ccccc2)[C@H](c2ccc(F)c(F)c2)C1 [Example 404, 1-(4-bromo-3-(methoxymethyl)-1-phenyl-1H-pyrazol-5-yl)-3-((3S,4R)-4-(3,4-difluorophenyl)-1-(2-methoxyethyl)pyrrolidin-3-yl)urea]
20 | < 100 nM | COCCN1C[C@@H](NC(=O)Nc2c(C)c(-c3cncc(F)c3)nn2-c2ccccc2)[C@H](c2ccc(F)c(F)c2)C1 [Example 489, 1-((3S,4R)-4-(3,4-difluorophenyl)-1-(2-methoxyethyl)pyrrolidin-3-yl)-3-(3-(5-fluoropyridin-3-yl)-4-methyl-1-phenyl-1H-pyrazol-5-yl)urea]
